Holding throughout (test): cells
One test concerns IST-MEL1. The test is classed as functional, cell-based, Homo sapiens. The note with it: Homo sapiens, IST-MEL1.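 Further: growth inhibition of the cell line, read out with a cell viability assay.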
Another test deals with SK-UT-1. The test is classed as functional, cell-based, Homo sapiens. The note with it: Homo sapiens, SK-UT-1.
Another test deals with A101D. The test is classed as functional, cell-based, Homo sapiens. The note with it: Homo sapiens, A101D.
A further test deals with GT3TKB. The test is classed as functional, cell-based, Homo sapiens. The conditions noted are these: Homo sapiens, GT3TKB.
Another test has as its system A498. The test is classed as functional, cell-based, Homo sapiens. The conditions noted are these: Homo sapiens, A498.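 Further: growth inhibition of human A498 cells, read out with a cell viability assay.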
Another test has as its system A4-Fuk. The test is classed as functional, cell-based. The note with it: Homo sapiens.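 Further: growth inhibition of A4-Fuk cells, read out by a cell viability assay.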
The next test relates to IST-SL1. The test is classed as functional, cell-based, Homo sapiens. The conditions noted are these: Homo sapiens, IST-SL1.
The test system of another test is MMAC-SF. The test is classed as functional, cell-based, Homo sapiens. The conditions noted are these: Homo sapiens, MMAC-SF.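 Further: growth inhibition of human MMAC-SF cells, read out with a cell viability assay.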
Another test deals with NCI-H1355. The test is classed as functional, cell-based, Homo sapiens. The note with it: Homo sapiens, NCI-H1355.
The subject of a further test is NB17. The test is classed as functional, cell-based. The conditions noted are these: Homo sapiens.
The next test concerns D-502MG. The test is classed as functional, cell-based, Homo sapiens. The note with it: Homo sapiens, D-502MG.
The test system of another test is RPMI-8866. The test is classed as functional, cell-based. The conditions noted are these: Homo sapiens.
The next test deals with VA-ES-BJ. The test is classed as functional, cell-based, Homo sapiens. The conditions noted are these: Homo sapiens, VA-ES-BJ.
Another test concerns RS4-11. The test is classed as functional, cell-based. The conditions noted are these: Homo sapiens.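 Further: growth inhibition of RS4-11 cells, read out by a cell viability assay.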
A further test relates to TE-11. The test is classed as functional, cell-based, Homo sapiens. The note with it: Homo sapiens, TE-11.
Another test deals with EW-1. The test is classed as functional, cell-based, Homo sapiens. The conditions noted are these: Homo sapiens, EW-1.
The next test concerns SBC-1. The test is classed as functional, cell-based. The conditions noted are these: Homo sapiens.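 Further: cell viability assay measuring growth inhibition of the SBC-1 cell line, IC50 being the concentration that halves growth.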
The subject of another test is NCI-H1304. The test is classed as functional, cell-based. The note with it: Homo sapiens.
A further test concerns KALS-1. The test is classed as functional, cell-based, Homo sapiens. The conditions noted are these: Homo sapiens, KALS-1.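 Further: growth inhibition of KALS-1 cells, determined with a cell viability assay.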
Another test deals with DEL. The test is classed as functional, cell-based. The conditions noted are these: Homo sapiens.
Another test relates to MFM-223. The test is classed as functional, cell-based, Homo sapiens. The note with it: Homo sapiens, MFM-223.
For a further test, the system named is MS-1. The test is classed as functional, cell-based. The conditions noted are these: Homo sapiens.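 Further: growth inhibition of MS-1 cells, read out by cell viability.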

These results are taken from ChEMBL document CHEMBL1201861, “Genomics of Drug Sensitity in Cancer screening data, Wellcome Trust Sanger Institute”.

Description for A101D: SANGER: Inhibition of human A101D cell growth in a cell viability assay.
Description for A4-Fuk: SANGER: Inhibition of human A4-Fuk cell growth in a cell viability assay.
Description for A498: SANGER: Inhibition of human A498 cell growth in a cell viability assay.
Description for D-502MG: SANGER: Inhibition of human D-502MG cell growth in a cell viability assay.
Description for DEL: SANGER: Inhibition of human DEL cell growth in a cell viability assay.
Description for EW-1: SANGER: Inhibition of human EW-1 cell growth in a cell viability assay.
Description for GT3TKB: SANGER: Inhibition of human GT3TKB cell growth in a cell viability assay.
Description for IST-MEL1: SANGER: Inhibition of human IST-MEL1 cell growth in a cell viability assay.
Description for IST-SL1: SANGER: Inhibition of human IST-SL1 cell growth in a cell viability assay.
Description for MFM-223: SANGER: Inhibition of human MFM-223 cell growth in a cell viability assay.
Description for MMAC-SF: SANGER: Inhibition of human MMAC-SF cell growth in a cell viability assay.
Description for MS-1: SANGER: Inhibition of human MS-1 cell growth in a cell viability assay.
Description for NB17: SANGER: Inhibition of human NB17 cell growth in a cell viability assay.
Description for NCI-H1304: SANGER: Inhibition of human NCI-H1304 cell growth in a cell viability assay.
Description for NCI-H1355: SANGER: Inhibition of human NCI-H1355 cell growth in a cell viability assay.
Description for RPMI-8866: SANGER: Inhibition of human RPMI-8866 cell growth in a cell viability assay.
Description for RS4-11: SANGER: Inhibition of human RS4-11 cell growth in a cell viability assay.
Description for SBC-1: SANGER: Inhibition of human SBC-1 cell growth in a cell viability assay.
Description for SK-UT-1: SANGER: Inhibition of human SK-UT-1 cell growth in a cell viability assay.
Description for TE-11: SANGER: Inhibition of human TE-11 cell growth in a cell viability assay.
Description for VA-ES-BJ: SANGER: Inhibition of human VA-ES-BJ cell growth in a cell viability assay.

In the case of `Cc1cc(Nc2cc(N3CCN(C)CC3)nc(Sc3ccc(NC(=O)C4CC4)cc3)n2)n[nH]1` [TOZASERTIB], the IC50 in the test with IST-MEL1 is above 2000 nM; in the test with SK-UT-1, 160 nM; in the test on A101D, 1870 nM; with GT3TKB it was 1280 nM; with A498, above 2000 nM; in the test with A4-Fuk it was 116 nM. In addition, the IC50 in the test with IST-SL1, in the test on MMAC-SF, with NCI-H1355, in the test on NB17, in the test on D-502MG and with RPMI-8866 was above 2000 nM in each case. Also, the IC50 was 201 nM with VA-ES-BJ; 4.04 nM in the test with RS4-11; 150 nM in the test with TE-11; 1190 nM in the test with EW-1; 1130 nM in the test on SBC-1; 1830 nM in the test with NCI-H1304. Further, the IC50 with KALS-1 was above 2000 nM; with DEL, 1260 nM; in the test on MFM-223, above 2000 nM; in the test on MS-1 it was above 2000 nM.
Turning to `CO[C@H]1C[C@@H]2CC[C@@H](C)[C@@](O)(O2)C(=O)C(=O)N2CCCC[C@H]2C(=O)O[C@H]([C@H](C)C[C@@H]2CC[C@@H](O)[C@H](OC)C2)CC(=O)[C@H](C)/C=C(\C)[C@@H](O)[C@@H](OC)C(=O)[C@H](C)C[C@H](C)/C=C/C=C/C=C/1C` [SIROLIMUS], the IC50 in the test with IST-MEL1 is above 100 nM; with SK-UT-1 it was 16.8 nM; in the test with A101D it was 32.6 nM; in the test with GT3TKB, above 100 nM; in the test with A498 it was above 100 nM; in the test with A4-Fuk, 13.1 nM. Further, the half-inhibitory concentration (IC50) with IST-SL1 is above 100 nM; in the test on MMAC-SF it was above 100 nM; with NCI-H1355, 1.01 nM; in the test with NB17, above 100 nM; in the test with D-502MG it was above 100 nM; in the test on RPMI-8866, above 100 nM. The IC50 in the test with VA-ES-BJ was 0.723 nM; in the test on RS4-11, above 100 nM; in the test with TE-11 it was 77.2 nM; with EW-1, 2.17 nM; in the test with SBC-1 it was above 100 nM; in the test with NCI-H1304, 57.2 nM. In addition, the IC50 is 6.56 nM in the test on KALS-1, 18 nM in the test on DEL, above 100 nM with MFM-223 and above 100 nM in the test with MS-1.
With `CCC(=O)N1CCN(c2ccc(-n3c(=O)ccc4cnc5ccc(-c6cnc7ccccc7c6)cc5c43)cc2C(F)(F)F)CC1` [TORIN1], the IC50 with IST-MEL1 is 17.7 nM; with SK-UT-1, 22.6 nM; in the test on A101D, 26.5 nM; with GT3TKB, 109 nM; with A498, above 1200 nM; in the test on A4-Fuk, 13.2 nM. In addition, the IC50 in the test on IST-SL1 is 858 nM; in the test with MMAC-SF, 26.3 nM; in the test with NCI-H1355, 16.5 nM; in the test on NB17 it was 117 nM; in the test with D-502MG, above 1200 nM; in the test on RPMI-8866, above 1200 nM. Further, the IC50 with VA-ES-BJ is 9.84 nM; with RS4-11, 59.4 nM; with TE-11, 23.7 nM; in the test on EW-1, 7.49 nM; in the test with SBC-1 it was 111 nM; in the test with NCI-H1304, above 1200 nM. The IC50 was 12 nM in the test with KALS-1, 28.1 nM with DEL, above 1200 nM in the test with MFM-223 and 402 nM in the test on MS-1.
On to `C=C1C(=O)O[C@@H]2C3O[C@]3(C)CC/C=C(\C)CC[C@@H]12` (stereo not given in full), for which the IC50 with IST-MEL1, with SK-UT-1, in the test on A101D, in the test with GT3TKB, in the test on A498 and with A4-Fuk was above 5000 nM in each case. The IC50 with IST-SL1 is above 5000 nM; in the test on MMAC-SF, above 5000 nM; with NCI-H1355 it was above 5000 nM; in the test with NB17, 1720 nM; in the test with D-502MG, above 5000 nM; with RPMI-8866, above 5000 nM. The IC50 in the test on VA-ES-BJ, with RS4-11, in the test on EW-1, with SBC-1, in the test on NCI-H1304 and in the test on KALS-1 was above 5000 nM in each case. Also, the IC50 in the test with DEL, in the test with MFM-223 and in the test on MS-1 was above 5000 nM throughout.
For `CCc1nc(N)nc(N)c1-c1ccc(Cl)cc1` [PYRIMETHAMINE], the IC50 was 4330 nM in the test with IST-MEL1; above 20000 nM in the test on SK-UT-1; above 20000 nM with A101D; above 20000 nM with GT3TKB; above 20000 nM in the test with A498; 15800 nM in the test with A4-Fuk. Moreover, the IC50 is 16100 nM with IST-SL1; above 20000 nM in the test on MMAC-SF; above 20000 nM in the test with NCI-H1355; above 20000 nM in the test on NB17; above 20000 nM in the test on D-502MG; 9700 nM in the test on RPMI-8866. Moreover, the IC50 with VA-ES-BJ was 15200 nM; in the test with RS4-11, above 20000 nM; in the test on EW-1, 1370 nM; in the test on SBC-1, above 20000 nM; in the test with NCI-H1304 it was above 20000 nM; in the test on KALS-1, 12000 nM. Besides, the IC50 in the test on DEL is 3930 nM; in the test with MFM-223, above 20000 nM; with MS-1, above 20000 nM.
As to `CN1CCN(CCOc2cc(OC3CCOCC3)c3c(Nc4c(Cl)ccc5c4OCO5)ncnc3c2)CC1` [SARACATINIB], the IC50 in the test on IST-MEL1, with SK-UT-1, in the test on A101D, with GT3TKB, with A498 and in the test with A4-Fuk was above 2000 nM throughout. Moreover, the IC50 in the test on IST-SL1, in the test with MMAC-SF, with NCI-H1355, in the test on NB17, in the test with D-502MG and in the test on RPMI-8866 was above 2000 nM in each case. The IC50 in the test with VA-ES-BJ was above 2000 nM; with RS4-11, above 2000 nM; in the test with TE-11, 1430 nM; with EW-1, above 2000 nM; in the test on SBC-1, above 2000 nM; with NCI-H1304, above 2000 nM. Further, the IC50 is 1990 nM in the test with KALS-1, above 2000 nM in the test with DEL, above 2000 nM in the test on MFM-223 and above 2000 nM in the test on MS-1.
